Usually IC50 stands for the midpoint of a concentration-inhibition curve. In general, MIC refers to the lowest concentration that inhibits growth of the organism.

The target in experiment [1] is T1, OXA-1 (Escherichia coli, UniProt P13661).
T1 construct: made in house; host or cells: E. coli
The experiment is described as follows: β-lactamase inhibitory activity, nitrocefin hydrolysis. It is filed as biochemical.
Method: (§1) Enzyme activity was monitored by spectrophotometric measurement of nitrocefin (NCF-TOKU-E, N005) hydrolysis at 485 nm, at room temperature and in assay buffer A: 100 mM Phosphate pH7, 2% glycerol and 0.1 mg/mL Bovine serum albumin (Sigma, B4287). […] To a transparent polystyrene plate (Corning, 3628) were added in each well 5 μL DMSO or inhibitor dilutions in DMSO and 80 μL enzyme in buffer A. Plates were immediately read at 485 nm in a microplate spectrophotometer (BioTek, PowerWave HT) to enable background subtraction. After 30 min of pre-incubation at room temperature, 15 μL of NCF (200 μM final) were finally added in each well. Final enzyme concentrations were 0.1 nM (TEM-1), 0.075 nM (SHV-1), 0.4 nM (CTX-M-15), 1 nM (KPC-2), 0.2 nM (P99 AmpC), 0.2 nM (CMY-37), 0.4 nM (AmpC P. aeruginosa), 0.2 nM (OXA-1), 1.2 nM (OXA-11), 0.4 nM (OXA-15) and 0.3 nM (OXA-48). After 20 min incubation at room temperature, plates were once again read at 485 nm. Enzyme activity was obtained by subtracting the final signal by the background, and was converted to enzyme inhibition using non inhibited wells. IC50 curves were fitted to a classical Langmuir equilibrium model with Hill slope using XLFIT (IDBS).

Experiment [2] has as its system P. aeruginosa UFR90 (derepressed AmpC, OprD−). The experiment is described as follows: MIC broth microdilution, alone and synergy with ceftazidime. As to conditions: strain UFR90; compound fixed at 4 μg/mL. On the technique in general: Dilution methods test growth across graded concentrations, often in twofold steps.
In experiment [3] the target is T2, OXA-15 (Pseudomonas aeruginosa, UniProt Q51574).
T2 construct: made in house; host or cells: E. coli
T2 sequence (Q51574 22-275): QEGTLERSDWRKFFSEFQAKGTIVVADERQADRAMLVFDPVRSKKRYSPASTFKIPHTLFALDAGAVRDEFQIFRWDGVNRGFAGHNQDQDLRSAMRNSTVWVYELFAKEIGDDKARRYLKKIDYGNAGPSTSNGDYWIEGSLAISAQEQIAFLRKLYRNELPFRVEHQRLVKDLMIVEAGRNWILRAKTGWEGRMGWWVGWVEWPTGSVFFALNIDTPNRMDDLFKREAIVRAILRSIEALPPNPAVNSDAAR
In words: β-lactamase inhibitory activity, nitrocefin hydrolysis. It is filed as biochemical.
Method: as §1

For experiment [4], the system named is K. pneumoniae UFR24 (TEM-1, SHV-2, SHV-11, OXA-1, OXA-48, OXA-47). The experiment is described as follows: MIC broth microdilution, alone and synergy with ceftazidime. As to conditions: for MIC of CAZ in combination with compound at 4 μg/mL: strain UFR24, compound fixed at 4 μg/mL.
Experiment [5] concerns P. aeruginosa UFR35 (OXA-23). The description is as above. As to conditions: for MIC of CAZ in combination with compound at 4 μg/mL: strain UFR35, compound fixed at 4 μg/mL.
Experiment [6] deals with E. cloacae 260508 (TEM-1, CTX-M-15). The description is as above. As to conditions: for MIC: Enterobacter cloacae, read-out: MIC compounds of the invention alone; for MIC of CAZ in combination with compound at 4 μg/mL: strain 260508, compound fixed at 4 μg/mL.
The target in experiment [7] is T3, KPC-2 (Klebsiella pneumoniae, UniProt Q9F663).
T3 construct: made in house; host or cells: E. coli
T3 sequence (Q9F663 25-293 limits assumed): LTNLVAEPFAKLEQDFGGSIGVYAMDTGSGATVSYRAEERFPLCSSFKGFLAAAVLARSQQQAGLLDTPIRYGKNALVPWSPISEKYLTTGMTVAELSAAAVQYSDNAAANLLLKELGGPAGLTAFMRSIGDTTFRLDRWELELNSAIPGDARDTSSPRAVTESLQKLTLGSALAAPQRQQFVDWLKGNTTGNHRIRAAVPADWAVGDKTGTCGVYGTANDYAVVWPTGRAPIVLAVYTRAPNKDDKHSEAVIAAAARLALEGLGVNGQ
The experiment is described as follows: β-lactamase inhibitory activity, nitrocefin hydrolysis. The experiment is classed as biochemical.
Method: as §1

Experiment [8] deals with E. coli UFR52 (TEM-1, SHV-12, IMP-8). The experiment is described as follows: MIC broth microdilution, alone and synergy with ceftazidime. The note with it: for MIC: Escherichia coli, read-out: MIC compounds of the invention alone; for MIC of CAZ in combination with compound at 4 μg/mL: strain UFR52, compound fixed at 4 μg/mL.
In experiment [9] the target is T4, P99 AmpC (Enterobacter cloacae, UniProt P05364).
T4 construct: made in house; host or cells: E. coli
T4 sequence (P05364 21-381): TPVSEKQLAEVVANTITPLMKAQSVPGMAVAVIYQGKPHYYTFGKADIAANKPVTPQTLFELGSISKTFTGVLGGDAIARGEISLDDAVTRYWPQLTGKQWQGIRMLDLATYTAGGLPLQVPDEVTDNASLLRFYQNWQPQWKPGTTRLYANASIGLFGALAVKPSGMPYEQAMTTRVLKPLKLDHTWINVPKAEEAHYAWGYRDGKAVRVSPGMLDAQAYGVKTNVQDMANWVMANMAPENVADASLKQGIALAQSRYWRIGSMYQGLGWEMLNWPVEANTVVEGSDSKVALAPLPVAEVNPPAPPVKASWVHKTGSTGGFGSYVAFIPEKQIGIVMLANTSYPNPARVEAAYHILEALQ
The experiment is described as follows: β-lactamase inhibitory activity, nitrocefin hydrolysis. It is filed as biochemical. As to conditions: class (C); 30 min pre-incubation; nitrocefin 200 μM.
Method: as §1

In experiment [10] the test system is E. cloacae UFR70 (TEM-1, CTX-M-15, CMY-2, OXA-1, Porin loss). In words: MIC broth microdilution, alone and synergy with ceftazidime. The note with it: for MIC: Enterobacter cloacae, read-out: MIC compounds of the invention alone; for MIC of CAZ in combination with compound at 4 μg/mL: strain UFR70, compound fixed at 4 μg/mL.
Experiment [11] deals with K. oxytoca UFR21 (TEM-1, CTX-M-15, OXA-48). The description is as above. The note with it: for MIC: Klebsiella oxytoca, read-out: MIC compounds of the invention alone; for MIC of CAZ in combination with compound at 4 μg/mL: strain UFR21, compound fixed at 4 μg/mL.
In experiment [12] the test system is P. aeruginosa UFR92 (derepressed AmpC, OprD−). The description is as above. As to conditions: strain UFR92; compound fixed at 4 μg/mL.
The test system of experiment [13] is E. coli 131119 (TEM-1, OXA-48). Described as above. As to conditions: for MIC: Escherichia coli, read-out: MIC compounds of the invention alone; for MIC of CAZ in combination with compound at 4 μg/mL: strain 131119, compound fixed at 4 μg/mL.
The target in experiment [14] is T5, OXA-11 (Pseudomonas aeruginosa, UniProt Q06778).
T5 construct: made in house; host or cells: E. coli
T5 sequence (Q06778 21-266): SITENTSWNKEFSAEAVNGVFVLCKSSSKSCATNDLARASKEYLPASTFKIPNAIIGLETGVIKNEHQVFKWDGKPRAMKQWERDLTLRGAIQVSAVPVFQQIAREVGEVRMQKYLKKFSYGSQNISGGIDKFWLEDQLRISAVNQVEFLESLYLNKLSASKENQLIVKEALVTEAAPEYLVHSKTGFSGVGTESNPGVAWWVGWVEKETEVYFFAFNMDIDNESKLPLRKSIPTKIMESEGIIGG
In words: β-lactamase inhibitory activity, nitrocefin hydrolysis. It is filed as biochemical.
Method: as §1

The test system of experiment [15] is P. aeruginosa UFR48 (VIM-2). The experiment is described as follows: MIC broth microdilution, compounds alone. The note with it: Pseudomonas aeruginosa, read-out: MIC compounds of the invention alone.
The subject of experiment [16] is P. aeruginosa UFR59 (IMP-29). The experiment is described as follows: MIC broth microdilution, compounds alone. As to conditions: Pseudomonas aeruginosa, read-out: MIC compounds of the invention alone.
Experiment [17] deals with P. aeruginosa UFR47 (VIM-1). The experiment is described as follows: MIC broth microdilution, compounds alone. As to conditions: Pseudomonas aeruginosa, read-out: MIC compounds of the invention alone.

T1 sequence (P13661 26-276): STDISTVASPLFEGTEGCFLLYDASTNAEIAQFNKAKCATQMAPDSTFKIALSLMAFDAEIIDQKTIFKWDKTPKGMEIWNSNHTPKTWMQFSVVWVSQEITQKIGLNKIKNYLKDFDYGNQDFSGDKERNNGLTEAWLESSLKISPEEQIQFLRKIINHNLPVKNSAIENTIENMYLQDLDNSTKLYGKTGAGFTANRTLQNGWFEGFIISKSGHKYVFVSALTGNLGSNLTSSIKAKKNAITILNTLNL

Turning to `Cn1c2c(sc1=O)C1CN(C2)C(=O)N1OS(=O)(=O)[O-].[Na+]` (stereo not drawn) [Example 1, Sodium (5-methyl-4,9-dioxo-3-thia-5,8,10-triaza-tricyclo[6.2.1.0^2.6]undec-2(6)-en-10-yl) sulfate], the IC50 in experiment [1] was determined as 0.063 µM; in experiment [3] it was 0.25 µM; in experiment [7], 0.0033 µM; in experiment [9], 0.048 µM; in [14], 0.04 µM. Further, the “MIC of CAZ in combination with compound at 4 μg/mL” value (“MIC of CAZ in combination” below) in experiment [2] was 64 mg/L; in experiment [4], 4 mg/L; in [5], 4 mg/L; in experiment [6], less than 0.25 mg/L; in [8] it was 0.5 mg/L; in experiment [10], less than 0.25 mg/L. The “MIC of CAZ in combination” value in [11] was 2 mg/L; in experiment [12] it was 32 mg/L; in experiment [13] it was less than 0.25 mg/L. The MIC in experiment [6] was determined as 4 mg/L; in experiment [8], 8 mg/L; in experiment [10], 4 mg/L; in experiment [11], 8 mg/L; in [13] it was 1 mg/L.

As for `COC(=O)Cn1c2c(sc1=O)C1CN(C2)C(=O)N1OS(=O)(=O)[O-].[Na+]` (stereo not drawn) [Example 2, Sodium [5-(2-methoxy-2-oxo-ethyl)-4,9-dioxo-3-thia-5,8,10-triaza-tricyclo[6.2.1.0^2.6]undec-2(6)-en-10-yl] sulfate], the IC50 in experiment [1] is 0.038 µM; in experiment [3], 0.057 µM; in experiment [7] it was 0.0013 µM; in experiment [9], 0.016 µM; in experiment [14], 0.0041 µM. For the same compound, the minimum inhibitory concentration (MIC) stood at 16 mg/L in experiment [4] (Klebsiella pneumoniae, read-out: MIC compounds of the invention alone); 4 mg/L in experiment [6]; 8 mg/L in experiment [8]; 8 mg/L in experiment [11]; 2 mg/L in experiment [13]. In addition, the “MIC of CAZ in combination” value was 4 mg/L in [4]; less than 0.25 mg/L in experiment [6]; 1 mg/L in experiment [10]; 16 mg/L in experiment [11]; less than 0.25 mg/L in experiment [13].

With `NCCn1c2c(sc1=O)C1CN(C2)C(=O)N1OS(=O)(=O)[O-].[Na+]` (stereo not drawn) [Example 4, Sodium and 2,2,2-trifluoroacetate [5-(2-azaniumethyl)-4,9-dioxo-3-thia-5,8,10-triaza-tricyclo[6.2.1.0^2.6]undec-2(6)-en-10-yl] sulfate], the concentration for half-maximal inhibition (IC50) in experiment [1] is 0.46 µM; in experiment [3], 0.3 µM; in experiment [7], 0.0074 µM; in experiment [9], 0.14 µM; in [14] it was 0.082 µM. In addition, the “MIC of CAZ in combination” value is 1 mg/L in experiment [2]; no more than 0.25 mg/L in [4]; 2 mg/L in experiment [5]; less than 0.25 mg/L in [6]; less than 0.25 mg/L in experiment [8]; less than 0.25 mg/L in experiment [10]. Moreover, the “MIC of CAZ in combination” value is less than 0.25 mg/L in [11], no more than 0.25 mg/L in experiment [12] and less than 0.25 mg/L in [13]. In addition, the MIC in experiment [15] was 8 mg/L; in experiment [5] (Pseudomonas aeruginosa, read-out: MIC compounds of the invention alone), 8 mg/L; in [6], 8 mg/L; in experiment [8], 2 mg/L; in experiment [10], 4 mg/L; in [11], 4 mg/L. Also, the figures for the minimum inhibitory concentration (MIC) in experiment [13], in experiment [16] and in experiment [17] were 2 mg/L, 8 mg/L and 16 mg/L, respectively.

`O=C1N2Cc3c(sc(=O)n3CCO)C(C2)N1OS(=O)(=O)[O-].[Na+]` (stereo not drawn) [Example 5, Sodium [5-(2-hydroxyethyl)-4,9-dioxo-3-thia-5,8,10-triaza-tricyclo[6.2.1.0^2.6]undec-2(6)-en-10-yl) sulfate]: the half-inhibitory concentration (IC50) in experiment [1] was 0.31 µM; in experiment [3], 0.19 µM; in experiment [7], 0.0017 µM; in experiment [9] it was 0.024 µM; in experiment [14], 0.031 µM. In addition, the “MIC of CAZ in combination” value in experiment [4], in experiment [6], in experiment [8], in experiment [10], in experiment [11] and in [13] was less than 0.25 mg/L in each case. Moreover, the minimum inhibitory concentration (MIC) is 4 mg/L in experiment [6], 0.5 mg/L in experiment [8], 1 mg/L in experiment [10] and 4 mg/L in experiment [11].

These data come from patent US10501481B2, “Heterocyclic compounds and their use in preventing or treating bacterial infections” (priority 2015, dated 2019).
